Results published in PubChem BioAssay (NCI).
Values joined by “and” are separate entries in the source; they are usually repeats but may differ in a detail not shown here. Equal entries are not always repeated.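 Step 1: Grow cells in 96-well plates. Step 2: Expose to compound for 48 hours at 5 concentrations. Step 3: Interpolate endpoints linearly; if unreached, use highest concentration. Abbreviation: GI50, concentration required for 50% inhibition of growth. TGI is the concentration that stops growth completely.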

How the values were obtained:
Assay in all cases: DTP human tumour cell line panel, 48 h
LOX IMVI melanoma = system: LOX IMVI melanoma
NCI-H460 lung = system: NCI-H460 lung
CAKI-1 renal = system: CAKI-1 renal
MALME-3M melanoma = system: MALME-3M melanoma
SNB-75 CNS = system: SNB-75 CNS
786-0 renal = system: 786-0 renal
HL-60(TB) leukemia = system: HL-60(TB) leukemia
IGROV1 ovarian = system: IGROV1 ovarian
SK-MEL-2 melanoma = system: SK-MEL-2 melanoma
T-47D breast = system: T-47D breast

SMILES | GI50 (LOX IMVI melanoma) [µM] | TGI (LOX IMVI melanoma) [µM] | GI50 (NCI-H460 lung) [µM] | TGI (NCI-H460 lung) [µM] | GI50 (CAKI-1 renal) [µM] | TGI (CAKI-1 renal) [µM] | GI50 (MALME-3M melanoma) [µM] | TGI (MALME-3M melanoma) | GI50 (SNB-75 CNS) [µM] | TGI (SNB-75 CNS) | GI50 (786-0 renal) [µM] | TGI (786-0 renal) [µM] | GI50 (HL-60(TB) leukemia) | TGI (HL-60(TB) leukemia) [µM] | GI50 (IGROV1 ovarian) | TGI (IGROV1 ovarian) [µM] | GI50 (SK-MEL-2 melanoma) | TGI (SK-MEL-2 melanoma) [µM] | GI50 (T-47D breast) [µM] | TGI (T-47D breast) [µM]
N#CCc1ncc(-c2ccc(C(F)(F)F)cc2)c(NC2CCCCCC2)n1 | > 10 | > 10 | > 10 | > 10 | > 10 | > 10 | > 10 | > 10 µM | > 10 | > 10 µM | > 10 | > 10 | > 10 µM | > 10 | > 10 µM | > 10 | > 10 µM | > 10 | > 10 | > 10
COc1cc2c[n+](C)c3c4ccccc4ccc3c2cc1OC (tested in a mixture with another compound) | 4.02 | 30.9 | 2.96 | 31.7 |  | > 83 | 1.28 | 3.25 µM and 14 µM | 3.11 | 8.49 µM and 15 µM | 4.53 | 39.5 | 4.56 µM | > 84.2 | 2.75 µM | 44.1 | 4.25 µM | 21.8 | 4.68 | 63.3
O=c1[nH]cnc2[nH]ncc12 | 142 | > 5000 | 1510 | > 5000 | 97.2 | > 5000 | 1330 | > 5000 µM | 1180 | > 4110 µM | 400 | > 5000 | > 79.9 µM and 108 µM | > 3420 | 54.6 µM and 422 µM | > 5000 | > 36.5 µM and 257 µM | > 5000 | 698 | > 5000
C=CC1CC12C(=O)C1OC2(C)C2C(=O)c3c(O)ccc(O)c3C(=O)C12 (configuration not stated) | 2.35 | 10.6 | 7.09 | 23.7 | 0.402 | 1.65 | 1.46 | 4.76 µM | 6.03 | 15.3 µM | 1.94 | 4.27 | 1.19 µM | 3.79 | 3.26 µM | > 100 | 14.5 µM | > 100 | 2.56 | 14.1
O=C(N/N=C/c1ccccc1O)C(=O)Nc1ccc(F)cc1 | 4.28 | > 100 | 2.74 | > 100 | 2.24 | 22 | 10.7 | 82.7 µM | 14.2 | 69.4 µM | 6.96 | > 100 | 2.02 µM | 8.75 | 4.29 µM | > 100 | 22.9 µM | > 100 | 6.63 | > 100
COc1ccc(/C=C/C(=O)Oc2cc(O)cc(O)c2)cc1 |  | 41.1 |  | > 100 |  | 31 |  | > 100 µM |  | > 100 µM |  | > 100 |  | 55.5 |  | 76.1 |  | > 100 |  | > 100
CC(C)NC(=O)OCc1c(COC(=O)NC(C)C)c(-c2ccc(Cl)cc2)n2c1CCC2 | 2.4 | 13.6 | 0.751 | 14.4 | 0.534 | 3.83 | 2.36 | 9.69 µM | 1.7 | 8.44 µM | 2.75 | 8.68 | 0.79 µM | 9.21 | 1.59 µM | 10.2 | 4.23 µM | 17.4 | 3.9 | 20.9
O=C(c1ccco1)c1c(C(F)(F)F)n([O-])c2ccccc2[n+]1=O | 0.548 | 2.1 | 0.245 | 1.15 | 1.13 | 3.94 | 1.68 | 8.02 µM | 8.36 | 25.1 µM | 0.42 | 1.83 | 0.175 µM | 1.42 | 0.549 µM | 1.21 | 1.48 µM | 6.19 | 1.97 | 29.7
CCCCCCCCCCCCSC(=N)N | 3.58 | 13.3 | 3.42 | 13.4 | 3.79 | 14.4 | 15 | 29.5 µM | 16.2 | 35 µM | 15.3 | 33.9 | 2.02 µM | 4.27 | 2.77 µM |  | 19.5 µM | 36.2 | 2.03 | 4.34
O=c1cc(-c2ccccc2)[nH]n1-c1nc2ccccc2[nH]1 | 4.61 | 28.1 | 2.51 | > 100 | 3.42 | > 100 | 17.7 | > 100 µM | 4.66 | > 100 µM | 4.8 | 46.6 | 4.52 µM | 29.1 | 6.81 µM | > 100 | 9.32 µM | 66.8 | 4.41 | > 100
Cc1cc(Cc2cc(C)cc(C(C)(C)C)c2O)c(O)c(C(C)(C)C)c1 | 7.55 | 20.2 | 3.64 | 12 | 2.36 | 8.03 | 5.3 | 20 µM | 11.9 | 24.3 µM | 11 | 23 | 10.5 µM | > 100 | 5.24 µM | 16.5 | 15.1 µM | 33.6 | 4.7 | 16.8
CC(=O)O/N=C1/C(c2c(O)[nH]c3cc(Br)ccc23)=Nc2ccccc21 | 1.13 | 2.4 | 1.24 | 3.33 | 0.275 | 2.04 | 3.48 | 8.42 µM | 0.811 | 5.11 µM | 1.92 | 8.06 | 1.88 µM | 4.37 | 1.27 µM | 3.33 | 1.28 µM | 2.89 | 2.59 | 7.82
CO[C@@H]1/C=C(C)/C=C/[C@@H](C)/C=C(\C)C(=O)OC(/C(C)=C/C=C(\C)CNC(=O)[C@H](CO)NC=O)[C@@H](C)/C=C/C=C/[C@H](OC)CC/C=C(C)/C=C/C1 (some centres not stated) | < 0.005 | < 0.005 | < 0.005 | 5.81 | < 0.005 | 0.592 | 0.0101 | 0.0261 µM | 0.242 | > 25.8 µM | < 0.005 | 0.322 | < 0.005 µM | > 50 | < 0.005 µM | 9.15 | < 0.005 µM |  | 0.0243 | 16.8
NC1=NC(c2ccc(Cl)cc2)C2=C(N1)/C(=C/c1ccc(Cl)cc1)CCC2 (configuration not stated) | 1.85 | 3.64 | 12.2 | 29.8 | 13.6 | > 96.7 | 19.4 | 50.8 µM | 16.4 | 59.3 µM | 9.42 | 29.7 | 12.3 µM | 45.8 | 15 µM | > 64.4 | 37.7 µM | > 70.2 | 11.6 | > 100
COc1ccc2c(c1)C(=O)/C(=C/c1ncc([N+](=O)[O-])n1C)O2 | 0.179 | 0.481 | 0.934 | 7.38 | 0.23 | 0.617 | 0.288 | 1.07 µM | 1.12 | 2.63 µM | 1.51 | 5.07 | 0.263 µM | 1.37 | 0.985 µM | 6.91 | 0.361 µM | 1.61 | 4.2 | > 100
